# According to US8492328B2, “Biomarkers and methods for determining sensitivity to insulin growth factor-1 receptor modulators” (Bristol-Myers Squibb Company, priority 2007, dated 2013):
# “Also recorded” adds a separate entry of the source.
# Assays:
# To184.T = assay: In vitro cellular proliferation assay ([3H]-thymidine incorporation); format: cell-based, human
# Procedure: (§1) All pediatric sarcoma and neuroblastoma cell lines were obtained from Dr. Lee Helman at NIH. All cell lines were grown in RPMI medium supplemented with Glutamax (Gibco/Invitrogen #61870-036), 10% inactivated fetal bovine serum (Gibco/Invitrogen #16140-071), 10 mM Hepes, penicillin and streptomycin.
# (§2) Cells were plated at an optimized density for each cell line per well in 96-well microtiter Falcon plates, incubated overnight, and then exposed to a serial dilution of drug. After 72 hours incubation with drug at 37° C., cells were pulsed with 4 μCi/ml [6-3H] thymidine (Amersham Pharmacia Biotech, UK) for 3 hours, trypsinized, harvested onto UniFilter-96, GF/B plates (PerkinElmer, Boston, Mass.) and scintillation was measured on a TopCount NXT (Packard, Conn.). Results were expressed as an IC50, which is the drug concentration required to inhibit cell proliferation by 50% to that of untreated control cells. The mean IC50 and standard deviation (SD) from multiple tests for each cell line were calculated.
# TC32 = assay: as above; format: cell-based, human
# Procedure: as §1, §2
# ME = assay: as above; format: cell-based, human
# Procedure: as §1, §2
# H2595 = assay: as above; format: cell-based, human
# Procedure: as §1, §2
# CTR = assay: as above; format: cell-based, human
# Procedure: as §1, §2
# SHSY5Y = assay: as above; format: cell-based, human
# Procedure: as §1, §2
# SK-LMS-1 = assay: as above; format: cell-based, human
# Procedure: as §1, §2
# H211 = assay: as above; format: cell-based, human
# Procedure: as §1, §2
# SA-4 = assay: as above; format: cell-based, human
# Procedure: as §1, §2
# IMR-32 = assay: as above; format: cell-based, human
# Procedure: as §1, §2
# VW = assay: as above; format: cell-based, human
# Procedure: as §1, §2
# RDES = assay: as above; format: cell-based, human
# Procedure: as §1, §2
# HTB-92 = assay: as above; format: cell-based, human
# Procedure: as §1, §2
# LAN-1 = assay: as above; format: cell-based, human
# Procedure: as §1, §2
# Rh36 = assay: as above; format: cell-based, human
# Procedure: as §1, §2
# SW-684 = assay: as above; format: cell-based, human
# Procedure: as §1, §2
# TC71 = assay: as above; format: cell-based, human
# Procedure: as §1, §2
# Rh1 = assay: as above; format: cell-based, human
# Procedure: as §1, §2
# LG = assay: as above; format: cell-based, human
# Procedure: as §1, §2
# SK-NAS = assay: as above; format: cell-based, human
# Procedure: as §1, §2
# KAG = assay: as above; format: cell-based, human
# Procedure: as §1, §2
# Rh41 = assay: as above; format: cell-based, human
# Procedure: as §1, §2
# JD = assay: as above; format: cell-based, human
# Procedure: as §1, §2
# HT1080/S = assay: as above; format: cell-based, human
# Procedure: as §1, §2
# SK-NSH = assay: as above; format: cell-based, human
# Procedure: as §1, §2
# 5838 = assay: as above; format: cell-based, human
# Procedure: as §1, §2
# Rh4 = assay: as above; format: cell-based, human
# Procedure: as §1, §2
# H513 = assay: as above; format: cell-based, human
# Procedure: as §1, §2
# H2052 = assay: as above; format: cell-based, human
# Procedure: as §1, §2
# [1] = tested on: IGF1R-sal, Colo205, RD1, HT-29, WiDr, GEO, MDA-PCa-2b, MCF-7, H3396, N-87, BT474, and SKBR3 cell lines; assay: Drug combination study (Dilution of Ratios) in cellular proliferation assays; conditions: for Combination Result: in vitro combination with compound 1, multiple cell lines, analyzed by Isobolograms
smiles,measurement,setting,value
"C[C@@]1(C(=O)Nc2ccc(F)nc2)CCCN1c1nc(Nc2cc(C3CC3)[nH]n2)c2cccn2n1 [Compound 2, (2S)-1-(4-((5-cyclopropyl-1H-pyrazol-3-yl)amino)pyrrolo[2,1-f][1,2,4]triazin-2-yl)-N-(6-fluoro-3-pyridinyl)-2-methyl-2-pyrrolidinecarboxamide]",IC50,"To184.T; Homo sapiens, 72 h",470 nM
same,Sensitivity Classification,To184.T; To184.T (Liposarcoma),R (“R” means resistant to the corresponding compounds.)
same,IC50,"TC32; Homo sapiens, TC-32, 72 h",8.4 nM
same,Sensitivity Classification,TC32; TC32 (Ewing),S (“S” means sensitive)
same,IC50,"ME; Homo sapiens, 72 h",15 nM
same,Sensitivity Classification,ME; ME (Rhabdomyosarcoma),S (“S” means sensitive)
same,Sensitivity Classification,H2595; H2595 (Melignant Pleural Mesothelioma),R (“R” means resistant to the corresponding compounds.)
same,IC50,"H2595; Homo sapiens, NCI-H2595, 72 h",4480 nM
same,sensitivity/resistance classification in words,CTR; CTR,sensitive
same,Sensitivity Classification,CTR; CTR (Rhabdomyosarcoma),S (“S” means sensitive)
same,IC50,"CTR; Homo sapiens, 72 h",253 nM
same,IC50,"SHSY5Y; Homo sapiens, SH-SY5Y, 72 h",106 nM
same,Sensitivity Classification,SHSY5Y; SHSY5Y (Neuroblastoma),S (“S” means sensitive)
same,IC50,"SK-LMS-1; Homo sapiens, SK-LMS-1, 72 h",687 nM
same,Sensitivity Classification,SK-LMS-1; SK-LMS-1 (Leiomyosarcoma),R (“R” means resistant to the corresponding compounds.)
same,Sensitivity Classification,H211; H211 (Melignant Pleural Mesothelioma),R (“R” means resistant to the corresponding compounds.)
same,IC50,"H211; Homo sapiens, NCI-H211, 72 h",733 nM
same,IC50,"SA-4; Homo sapiens, 72 h",1300 nM
same,Sensitivity Classification,SA-4; SA-4 (Liposarcoma),R (“R” means resistant to the corresponding compounds.)
same,IC50,"IMR-32; Homo sapiens, IMR-32, 72 h",261 nM
same,Sensitivity Classification,IMR-32; IMR-32 (Neuroblastoma),S (“S” means sensitive)
same,IC50,"VW; Homo sapiens, 72 h",19 nM
same,Sensitivity Classification,VW; VW (Ewing),S (“S” means sensitive)
same,IC50,"RDES; Homo sapiens, RD-ES, 72 h",11.7 nM
same,Sensitivity Classification,RDES; RDES (Ewing),S (“S” means sensitive)
same,Sensitivity Classification,HTB-92; HTB-92 (Liposarcoma),R (“R” means resistant to the corresponding compounds.)
same,IC50,"HTB-92; Homo sapiens, 72 h",1020 nM
same,IC50,"LAN-1; Homo sapiens, LAN1, 72 h",40 nM
same,Sensitivity Classification,LAN-1; LAN-1 (Neuroblastoma),S (“S” means sensitive)
same,IC50,"Rh36; Homo sapiens, 72 h",1430 nM
same,Sensitivity Classification,Rh36; Rh36 (Rhabdomyosarcoma),R (“R” means resistant to the corresponding compounds.)
same,IC50,"SW-684; Homo sapiens, SW684, 72 h",5000 nM
same,Sensitivity Classification,SW-684; SW-684 (Fibrosarcoma),R (“R” means resistant to the corresponding compounds.)
same,IC50,"TC71; Homo sapiens, TC-71, 72 h",14.3 nM
same,Sensitivity Classification,TC71; TC71 (Ewing),S (“S” means sensitive)
same,IC50,"Rh1; Homo sapiens, RH-1, 72 h",26.7 nM
same,Sensitivity Classification,Rh1; Rh1 (Rhabdomyosarcoma),S (“S” means sensitive)
same,IC50,"LG; Homo sapiens, 72 h",37.5 nM
same,Sensitivity Classification,LG; LG (Ewing),S (“S” means sensitive)
same,IC50,"SK-NAS; Homo sapiens, SK-N-AS, 72 h",497 nM
same,sensitivity/resistance classification in words,SK-NAS; SK-NAS,resistant
same,Sensitivity Classification,SK-NAS; SK-NAS (Neuroblastoma),R (“R” means resistant to the corresponding compounds.)
same,IC50,"KAG; Homo sapiens, 72 h",1660 nM
same,Sensitivity Classification,KAG; KAG (Ewing),R (“R” means resistant to the corresponding compounds.)
same,IC50,"Rh41; Homo sapiens, Rh41, 72 h",4.7 nM
same,Sensitivity Classification,Rh41; Rh41 (Rhabdomyosarcoma),S (“S” means sensitive)
same,IC50,"JD; Homo sapiens, 72 h",391 nM
same,sensitivity/resistance classification in words,JD; JD,resistant
same,Sensitivity Classification,JD; JD (Ewing),R (“R” means resistant to the corresponding compounds.)
same,Sensitivity Classification,HT1080/S; HT1080/S (Fibrosarcoma),R (“R” means resistant to the corresponding compounds.)
same,IC50,"HT1080/S; Homo sapiens, HT-1080, 72 h",531 nM
same,IC50,"SK-NSH; Homo sapiens, SK-N-SH, 72 h",139 nM
same,Sensitivity Classification,SK-NSH; SK-NSH (Neuroblastoma),S (“S” means sensitive)
same,Sensitivity Classification,5838; 5838 (Ewing),S (“S” means sensitive)
same,IC50,"5838; Homo sapiens, 72 h",34 nM
same,IC50,"Rh4; Homo sapiens, Rh4, 72 h",4 nM
same,Sensitivity Classification,Rh4; Rh4 (Rhabdomyosarcoma),S (“S” means sensitive)
same,Sensitivity Classification,H513; H513 (Melignant Pleural Mesothelioma),R (“R” means resistant to the corresponding compounds.)
same,IC50,"H513; Homo sapiens, H513, 72 h",4450 nM
same,Sensitivity Classification,H2052; H2052 (Melignant Pleural Mesothelioma),R (“R” means resistant to the corresponding compounds.)
same,IC50,"H2052; Homo sapiens, NCI-H2052, 72 h",1050 nM
same,Combination result of compound 2,"[1]; compound 2 with HER1/HER2 inhibitors or dasatinib, data not shown",synergy effects
COc1cc([C@@H]2c3cc4c(cc3[C@@H](O[C@@H]3O[C@@H]5CO[C@@H](C)O[C@H]5[C@H](O)[C@H]3O)[C@H]3COC(=O)[C@H]23)OCO4)cc(OC)c1O [VP-16],Combination Result,[1],Additive
N.N.[Cl][Pt][Cl] [cisplatin],Combination Result,[1],Additive
C#Cc1cccc(Nc2ncnc3cc(OCCOC)c(OCCOC)cc23)c1 [erlotinib],Combination Result,[1],synergistic effects; also recorded: Synergy
COc1cc2ncnc(Nc3ccc(F)c(Cl)c3)c2cc1OCCCN1CCOCC1 [gefitnib],Combination Result,[1],synergistic effects; also recorded: Synergy
CS(=O)(=O)CCNCc1ccc(-c2ccc3ncnc(Nc4ccc(OCc5cccc(F)c5)c(Cl)c4)c3c2)o1 [lapatinib],Combination Result,[1],synergistic effects; also recorded: Synergy
CC(=O)O[C@H]1C(=O)[C@@]2(C)[C@H]([C@H](OC(=O)c3ccccc3)[C@]3(O)C[C@H](OC(=O)[C@H](O)[C@@H](NC(=O)c4ccccc4)c4ccccc4)C(C)=C1C3(C)C)[C@]1(OC(C)=O)CO[C@@H]1C[C@@H]2O [paclitaxel],Combination Result,[1],Additive
CC[C@]1(O)C[C@H]2CN(CCc3c([nH]c4ccccc34)[C@@](C(=O)OC)(c3cc4c(cc3OC)N(C=O)[C@H]3[C@@](O)(C(=O)OC)[C@H](OC(C)=O)[C@]5(CC)C=CCN6CC[C@]43[C@@H]65)C2)C1 [vincristine],Combination Result,[1],Additive
